Patent US6245791A (Aventis Pharma S.A., priority 1998, dated 2001)

Tested on: glutamate uptake in synaptosomes of rat cerebellum
Method: The increase in glutamate uptake is evaluated in a suspension of synaptosomes prepared from rat cerebellar cells.
The synaptosomes were prepared according to a modification of the method described by Robinson, M. B., et al., (Brain Res., 544: 196-202, 1991). The tissues of cerebellum or of other regions of the brain of male rats of the Sprague-Dawley breed are homogenized in a sucrose solution (0.32 M) at 4° C. and then centrifuged at 800 g for 10 minutes. The supernatant is then recentrifuged at 20,000 g for 20 minutes. The centrifugation pellet obtained is resuspended in an identical sucrose solution and then centrifuged again at 20,000 g for 20 minutes. The synaptosomes are contained in this second centrifugation pellet. They are suspended and used immediately for measuring glutamate uptake. This is monitored with the aid of tritium-labelled glutamate ([^3 H]glutamate) diluted in a solution of nonradioactive glutamate. After 3 minutes of incubation at 37° C., the synaptosomes are separated from the incubation medium by filtration. […] This radioactivity is proportional to the glutamate uptake. The results are expressed as specific uptake, that is to say the uptake which depends on the presence of sodium ions in the incubation medium. It can be distinguished from the nonspecific uptake which corresponds to the radioactivity measured after equimolar replacement of sodium chloride in the incubation medium with choline chloride. The specific uptake corresponds to the total radioactivity minus the radioactivity measured in the presence of choline chloride.
The data are the mean values±SEM of n=8 independent observations.

With `Nc1nc2ccc(OC(F)(F)F)cc2s1` [riluzole, 2-amino-6-trifluoromethoxybenzothiazole] the “dependence of the increase in glutamate uptake on the age of the rats” value (cerebellum, postnatal period to adult age, stable after about 10 weeks) was “increases with the age of the rats”, the “uptake of radioactive glutamate (result in words)” value (rat cerebellar synaptosomes, increasing concentrations of riluzole (FIG. 1)) was “increased in a concentration-dependent manner” and the “maximum increase in glutamate uptake” value (rat cerebellar synaptosomes, specific uptake, n=8, 3 min) was ~40 % of the control values.
